Literature values, collected in patent US20070117788A1, “Combination of a dopamine D2-receptor agonist and tiotropium or a derivative therof for treating obstructive airways and other inflammatory diseases” (Boehringer Ingelheim Pharma GmbH & Co. KG, priority 2001, published 2007).

What was measured:
δ and ε protein kinase C = conditions: with ethanol, neural cells in culture

Structure (SMILES) | anti-allergic effect (antigen-challenged pig) | rhinorrhea (antigen-challenged pig) | translocation of δ and ε protein kinase C (δ and ε protein kinase C)
CCCn1c(=O)c2c(C)nc(CC)n2c2nc(OC)ccc21 [Example D-22888] | strong anti-allergic affect | inhibit rhinorrhea | 
Br.CCCN1CCc2cc(O)cc3c2[C@H]1Cc1ccc(O)c(O)c1-3 [R(−)-2,10,11-trihydroxy-N-propyl-noraporphine hydrobromide] |  |  | acts synergistically with ethanol to cause translocation
